Measured values published in patent publication US20060069132A1, “Azolecarboxamide herbicides” (priority 2004, published 2006).

Legend:
corn = assay: Test B pre-/postemergence herbicide test; type: in vivo, Zea mays
In short: (§1)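 Herbicidal effect was judged by eye on a 0–100 scale after plants stood 13 to 15 days in the greenhouse following pre- or postemergence treatment with surfactant-containing formulations.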

large crabgrass = assay: Test B pre-/postemergence herbicide test; type: in vivo, Digitaria sanguinalis
In short: as §1

Surinam grass = assay: Test C pre-/postemergence herbicide test; type: in vivo, Urochloa decumbens
In short: (§2)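 Emerged plants at the 1- to 4-leaf stage (2–18 cm), or freshly planted seeds, received test chemicals in a non-phytotoxic solvent mixture with surfactant. Response was visually scored against controls after 12 to 14 days in the greenhouse, on a 0 (no effect) to 100 (complete control) scale.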

cocklebur = assay: Test C pre-/postemergence herbicide test; type: in vivo, Xanthium strumarium
In short: as §2

eastern black nightshade = assay: Test C pre-/postemergence herbicide test; type: in vivo, Solanum ptycanthum; conditions: preemergence
Text: Seeds of plant species selected from bermudagrass (Cynodon dactylon (L.) Pers.), Surinam grass (Urochloa decumbens (Staph) R. D. Webster, previously named Brachiaria decumbens Stapf), cocklebur (Xanthium strumarium L.), corn (Zea mays L.), large crabgrass (Digitaria sanguinalis (L.) Scop.), woolly cupgrass (Eriochloa villosa (Thunb.) Kunth), giant foxtail (Setaria faberi Herrm.), goosegrass (Eleusine indica (L.) Gaertn.), johnsongrass (Sorghum halepense (L.) Pers.), kochia (Kochia scoparia (L.) Schrad.), lambsquarters (Chenopodium album L.), morningglory (Ipomoea coccinea L.), eastern black nightshade (Solanum ptycanthum Dunal), yellow nutsedge (Cyperus esculentus L.), pigweed (Amaranthus retroflexus L.), common ragweed (Ambrosia elatior L.), soybean (Glycine max (L.) Merr.), common (oilseed) sunflower (Helianthus annuus L.) and velvetleaf (Abutilon theophrasti Medik.) were planted and treated preemergence with test chemicals formulated in a non-phytotoxic solvent mixture which included a surfactant.
At the same time, plants selected from these crop and weed species and also winter barley (Hordeum vulgare L.), blackgrass (Alopecurus myosuroides Huds.), canarygrass (Phalaris minor Retz.), chickweed (Stellaria media (L.) Vill.), downy bromegrass (Bromus tectorum L.), green foxtail (Setaria viridis (L.) Beauv.), Italian ryegrass (Lolium multiflorum Lam.), wheat (Triticum aestivum L.), wild oat (Avenafatua L.) and windgrass (Apera spica-venti (L.) Beauv.) were treated with postemergence applications of some of the test chemicals formulated in the same manner. Plants ranged in height from 2 to 18 cm (1- to 4-leaf stage) for postemergence treatments. Plant species in the flooded paddy test consisted of rice (Oryza sativa), smallflower umbrella sedge (Cyperus difformis L.), ducksalad (Heteranthera limosa (Sw.) Willd.) and barnyardgrass (Echinochloa crus-galli (L.) Beauv.) grown to the 2-leaf stage for testing. Treated plants and controls were maintained in a greenhouse for 12 to 14 days, after which time all species were compared to controls and visually evaluated. Plant response ratings, summarized in Table C, are based on a scale of 0 to 100 where 0 is no effect and 100 is complete control. A dash (-) response means no test result.

pigweed = assay: Test C pre-/postemergence herbicide test; type: in vivo, Amaranthus retroflexus
In short: as §2

soybean = assay: Test C pre-/postemergence herbicide test; type: in vivo, Glycine max
In short: as §2

velvetleaf [1] = assay: Test C pre-/postemergence herbicide test; type: in vivo, Abutilon theophrasti
In short: as §2

velvetleaf [2] = assay: Test A pre-/postemergence herbicide test; type: in vivo, Abutilon theophrasti
In short: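 Both application timings were run together: directed soil spray over freshly planted seeds in sandy loam, and runoff spray onto 2–10 cm seedlings. Evaluation after ~10 days in greenhouse used a 0–100 visual scale versus untreated controls.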

[3] = 125 g ai/ha, visual rating, scale 0 (no effect) to 100 (complete control), postemergence
[4] = postemergence, 500 g ai/ha, scale 0 to 100, 0 is no effect, 100 is complete control
[5] = 62 g ai/ha, preemergence, scale 0 to 100
[6] = 250 g ai/ha, scale 0-100, preemergence
[7] = 500 g ai/ha, scale 0 to 100 (0 no effect, 100 complete control), visual, 12 to 14 days, preemergence
[8] = Postemergence, 500 g ai/ha, 0 to 100 scale, 0 no effect, 100 complete control
[9] = Postemergence, 2000 g ai/ha, 0 to 100 scale, 0 no effect, 100 complete control
[10] = Preemergence, 500 g ai/ha, visual rating, 0 to 100 scale (0 no effect, 100 complete control)
[11] = Preemergence, 2000 g ai/ha, visual rating, 0 to 100 scale (0 no effect, 100 complete control)
[12] = Postemergence, 500 g ai/ha, visual rating after 13 to 15 days, scale 0 (no effect) to 100 (complete control)
[13] = Preemergence, 500 g ai/ha, scale 0 to 100
[14] = postemergence, 125 g ai/ha, visual rating, scale 0 (no effect) to 100 (complete control)
[15] = preemergence, 125 g ai/ha, 0 to 100 scale, 0 is no effect, 100 is complete control
[16] = Postemergence, 500 g ai/ha, scale 0 to 100
[17] = Postemergence, 250 g ai/ha, scale 0 to 100, 0 no effect, 100 complete control
[18] = postemergence, 125 g ai/ha, scale 0 to 100
[19] = postemergence, 62 g ai/ha, scale 0 to 100
[20] = 500 g ai/ha, visual rating 0-100, 0 no effect, 100 complete control, preemergence

CCC1=NN(C(C)(C)C)CC1C(=O)Nc1cc(C(=O)N2CC=CC2)ccc1F (racemic) [Compound 340]
Corn plant response rating (corn; [3]): 0 | Corn plant response rating (corn; [4]): 20 | Plant response rating (0 to 100 scale), Crabgrass, Large (large crabgrass; 125 g ai/ha, 0 is no effect, 100 is complete control, preemergence): 80 | Crabgrass, Large plant response rating (large crabgrass; [3]): 10 | Plant response rating, Crabgrass, Large (large crabgrass; 500 g ai/ha, visual rating, 0 = no effect, 100 = complete control, preemergence): 100 | Crabgrass, Large plant response rating (large crabgrass; [4]): 20 | Plant response rating, Surinam Grass (Surinam grass; [5]): 0 | Plant response rating (0 = no effect, 100 = complete control), Surinam Grass (Surinam grass; 125 g ai/ha, preemergence): 60 | Plant response rating, Surinam Grass (Surinam grass; [6]): 65 | Plant response rating, Surinam Grass (Surinam grass; [7]): 85 | Plant response rating, Cocklebur (cocklebur; [5]): 0 | Plant response rating (0 = no effect, 100 = complete control), Cocklebur (cocklebur; 125 g ai/ha, preemergence): 0 | Plant response rating, Cocklebur (cocklebur; [6]): 0 | Plant response rating, Cocklebur (cocklebur; [7]): 40 | Plant response rating, Nightshade (eastern black nightshade; 62 g ai/ha, scale 0 to 100): 60 | Plant response rating (0 = no effect, 100 = complete control), Nightshade (eastern black nightshade; 125 g ai/ha): 90 | Plant response rating, Nightshade (eastern black nightshade; 250 g ai/ha, scale 0-100): 100 | Plant response rating, Nightshade (eastern black nightshade; 500 g ai/ha, scale 0 to 100 (0 no effect, 100 complete control), visual, 12 to 14 days): 100 | Plant response rating, Pigweed (pigweed; [5]): 70 | Plant response rating (0 = no effect, 100 = complete control), Pigweed (pigweed; 125 g ai/ha, preemergence): 85 | Plant response rating, Pigweed (pigweed; [6]): 100 | Plant response rating, Pigweed (pigweed; [7]): 100 | Plant response rating, Soybean (soybean; [5]): 0 | Plant response rating (0 = no effect, 100 = complete control), Soybean (soybean; 125 g ai/ha, preemergence): 0 | Plant response rating, Soybean (soybean; [6]): 0 | Plant response rating, Soybean (soybean; [7]): 10 | Plant response rating, Velvetleaf (velvetleaf [1]; [5]): 0 | Plant response rating (0 = no effect, 100 = complete control), Velvetleaf (velvetleaf [1]; 125 g ai/ha, preemergence): 60 | Plant response rating, Velvetleaf (velvetleaf [1]; [6]): 95 | Plant response rating, Velvetleaf (velvetleaf [1]; [7]): 100

C=CCOC(=O)c1cccc(NC(=O)c2cc(C(C)(C)C)nn2CC)c1 [Compound 85]
Velvetleaf plant response rating (velvetleaf [2]; [8]): 30 | Plant response rating, Velvetleaf (velvetleaf [2]; [9]): 20 | Velvetleaf plant response rating (velvetleaf [2]; [10]): 0 | Velvetleaf plant response rating (velvetleaf [2]; [11]): 0 | Plant response rating, Corn (corn; [12]): 30 | Corn plant response rating (corn; [13]): 0 | Corn plant response rating (corn; [14]): 20 | Plant response rating, Corn (corn; [15]): 0 | Plant response rating, Crabgrass, Large (large crabgrass; [12]): 80 | Crabgrass, Large plant response rating (large crabgrass; [13]): 0 | Crabgrass, Large plant response rating (large crabgrass; [14]): 50 | Plant response rating, Crabgrass, Large (large crabgrass; [15]): 0 | Surinam Grass plant response rating (Surinam grass; [16]): 80 | Plant response rating, Surinam Grass (Surinam grass; [17]): 80 | Plant response rating, Surinam Grass (Surinam grass; [18]): 30 | Plant response rating, Surinam Grass (Surinam grass; [19]): 25 | Cocklebur plant response rating (cocklebur; [16]): 100 | Plant response rating, Cocklebur (cocklebur; [17]): 100 | Plant response rating, Cocklebur (cocklebur; [18]): 80 | Plant response rating, Cocklebur (cocklebur; [19]): 20 | Pigweed plant response rating (pigweed; [16]): 100 | Plant response rating, Pigweed (pigweed; [17]): 100 | Plant response rating, Pigweed (pigweed; [18]): 100 | Plant response rating, Pigweed (pigweed; [19]): 100 | Soybean plant response rating (soybean; [16]): 95 | Plant response rating, Soybean (soybean; [17]): 80 | Plant response rating, Soybean (soybean; [18]): 60 | Plant response rating, Soybean (soybean; [19]): 55 | Velvetleaf plant response rating (velvetleaf [1]; [16]): 85 | Plant response rating, Velvetleaf (velvetleaf [1]; [17]): 80 | Plant response rating, Velvetleaf (velvetleaf [1]; [18]): 75 | Plant response rating, Velvetleaf (velvetleaf [1]; [19]): 60

CC(=NO)c1cccc(NC(=O)c2cc(C(C)(C)C)nn2CC(F)(F)F)c1 [Compound 112]
Velvetleaf plant response rating (velvetleaf [2]; [8]): 25 | Plant response rating, Velvetleaf (velvetleaf [2]; [9]): 35 | Velvetleaf plant response rating (velvetleaf [2]; [10]): 25 | Velvetleaf plant response rating (velvetleaf [2]; [11]): 50 | Plant response rating, Corn (corn; [20]): 0 | Plant response rating, Corn (corn; [12]): 40 | Corn plant response rating (corn; [14]): 40 | Plant response rating, Corn (corn; [15]): 0 | Plant response rating, Crabgrass, Large (large crabgrass; [20]): 90 | Plant response rating, Crabgrass, Large (large crabgrass; [12]): 30 | Crabgrass, Large plant response rating (large crabgrass; [14]): 20 | Plant response rating, Crabgrass, Large (large crabgrass; [15]): 20 | Surinam Grass plant response rating (Surinam grass; [16]): 60 | Plant response rating, Surinam Grass (Surinam grass; [17]): 40 | Plant response rating, Surinam Grass (Surinam grass; [18]): 40 | Plant response rating, Surinam Grass (Surinam grass; [19]): 20 | Cocklebur plant response rating (cocklebur; [16]): 70 | Plant response rating, Cocklebur (cocklebur; [17]): 60 | Plant response rating, Cocklebur (cocklebur; [18]): 30 | Plant response rating, Cocklebur (cocklebur; [19]): 0 | Pigweed plant response rating (pigweed; [16]): 100 | Plant response rating, Pigweed (pigweed; [17]): 100 | Plant response rating, Pigweed (pigweed; [18]): 60 | Plant response rating, Pigweed (pigweed; [19]): 10 | Soybean plant response rating (soybean; [16]): 60 | Plant response rating, Soybean (soybean; [17]): 50 | Plant response rating, Soybean (soybean; [18]): 0 | Plant response rating, Soybean (soybean; [19]): 0 | Velvetleaf plant response rating (velvetleaf [1]; [16]): 90 | Plant response rating, Velvetleaf (velvetleaf [1]; [17]): 80 | Plant response rating, Velvetleaf (velvetleaf [1]; [18]): 0 | Plant response rating, Velvetleaf (velvetleaf [1]; [19]): 0

C#CCOC(=O)c1cccc(NC(=O)c2cc(C(C)(C)C)nn2CC)c1 [Compound 84]
Velvetleaf plant response rating (velvetleaf [2]; [8]): 20 | Plant response rating, Velvetleaf (velvetleaf [2]; [9]): 20 | Velvetleaf plant response rating (velvetleaf [2]; [10]): 0 | Velvetleaf plant response rating (velvetleaf [2]; [11]): 0 | Plant response rating, Corn (corn; [12]): 20 | Corn plant response rating (corn; [13]): 0 | Corn plant response rating (corn; [14]): 10 | Plant response rating, Corn (corn; [15]): 0 | Plant response rating, Crabgrass, Large (large crabgrass; [12]): 50 | Crabgrass, Large plant response rating (large crabgrass; [13]): 0 | Crabgrass, Large plant response rating (large crabgrass; [14]): 20 | Plant response rating, Crabgrass, Large (large crabgrass; [15]): 0 | Surinam Grass plant response rating (Surinam grass; [16]): 10 | Plant response rating, Surinam Grass (Surinam grass; [17]): 0 | Plant response rating, Surinam Grass (Surinam grass; [18]): 0 | Plant response rating, Surinam Grass (Surinam grass; [19]): 0 | Cocklebur plant response rating (cocklebur; [16]): 0 | Plant response rating, Cocklebur (cocklebur; [17]): 0 | Plant response rating, Cocklebur (cocklebur; [18]): 0 | Plant response rating, Cocklebur (cocklebur; [19]): 0 | Pigweed plant response rating (pigweed; [16]): 100 | Plant response rating, Pigweed (pigweed; [17]): 100 | Plant response rating, Pigweed (pigweed; [18]): 100 | Plant response rating, Pigweed (pigweed; [19]): 100 | Soybean plant response rating (soybean; [16]): 20 | Plant response rating, Soybean (soybean; [17]): 20 | Plant response rating, Soybean (soybean; [18]): 0 | Plant response rating, Soybean (soybean; [19]): 0 | Velvetleaf plant response rating (velvetleaf [1]; [16]): 0 | Plant response rating, Velvetleaf (velvetleaf [1]; [17]): 0 | Plant response rating, Velvetleaf (velvetleaf [1]; [18]): 0 | Plant response rating, Velvetleaf (velvetleaf [1]; [19]): 0
